Where a SMILES comes first, the peptide text is derived from it. [ ]: non-standard residue; d: D form. dHyp = O=C(O)[C@H]1C[C@H](O)CN1
Legend:
[1] = system: BV2 (mouse microglia) cell line; experiment: pHrodo-myelin phagocytosis/cell viability high content imaging assay: viability (cell count, nuclear area, nuclear intensity); settings: for 1. Cell count (% control) / 2. Nuclear Area (% Control) / 3. Nuclear DNA Intensity (% control): 48 hours treatment
Procedure, shortened: (§1)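 BV2 mouse and HMC3 human microglia were treated with compounds at 10 μM for 48 h, with pHrodo-myelin present for the last 20 h. Viability was imaged as total cell count per well and mean nuclear intensity per cell. Values are means of duplicates, normalized to untreated wells as % control.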

[2] = system: HMC3 (human microglia) cell line; experiment: as above; settings: for 1. Cell count (% control) / 2. Nuclear Area (% Control) / 3. Nuclear DNA Intensity (% control): 48 hours treatment
Procedure, shortened: as §1

[3] = system: BV2 (mouse microglia) cell line; experiment: pHrodo-myelin phagocytosis/cell viability high content imaging assay: phagocytosis signal; assay type: cell-based
Procedure, shortened: (§2)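 Imaging at high content captured pHrodo-myelin uptake about 22 hours after its addition, alongside a viability read-out from the same cells. Three measurements were derived, with intensity increase marking early apoptosis and decrease marking later apoptosis.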

[4] = system: HMC3 (human microglia) cell line; experiment: as above; assay type: cell-based
Procedure, shortened: as §2

[5] = BV2 cells, 10 uM compound, 48 hours treatment, pHrodo-myelin final 20 hours
[6] = HMC3 cells, 10 uM compound, 48 hours treatment, pHrodo-myelin final 20 hours
[7] = BV2, compound 10 uM, pHrodo-myelin
[8] = HMC3, compound 10 uM, pHrodo-myelin

## O=S(=O)(c1ccc2c(c1)C(=NO)c1cc(S(=O)(=O)N3CCCCC3)ccc1-2)N1CCCCC1 [UNC10302976A]
[1]; BV2 cells, 10 uM compound
  1. Cell count (% control): 11.0 % control
  2. Nuclear Area (% Control): 116.9 % Control
  3. Nuclear DNA Intensity (% control): 256.7 % control
[2]; HMC3 cells, 10 uM compound
  1. Cell count (% control): 69.8 % control
  2. Nuclear Area (% Control): 63.2 % Control
  3. Nuclear DNA Intensity (% control): 194.1 % control
[3]; [5]
  4. Phagocytosis (% control): 51.8 % control
[4]; [6]
  4. Phagocytosis (% control): 12.0 % control

## CCN(C)C(=O)Oc1cccc([C@H](C)N(C)C)c1 [UNC10303091A]
[1]; BV2 cells, 10 uM compound
  1. Cell count (% control): 139.1 % control
  2. Nuclear Area (% Control): 103.4 % Control
  3. Nuclear DNA Intensity (% control): 100.1 % control
[2]; HMC3 cells, 10 uM compound
  1. Cell count (% control): 141.4 % control
  2. Nuclear Area (% Control): 98.9 % Control
  3. Nuclear DNA Intensity (% control): 95.5 % control
[3]; [5]
  4. Phagocytosis (% control): 166.0 % control
[4]; [6]
  4. Phagocytosis (% control): 80.4 % control

## CN1C(N)=N[C@](C)(c2cc(NC(=O)c3ccc(F)cn3)ccc2F)CS1(=O)=O [UNC10303092A]
[1]; BV2 cells, 10 uM compound
  1. Cell count (% control): 104.0 % control
  2. Nuclear Area (% Control): 108.1 % Control
  3. Nuclear DNA Intensity (% control): 102.5 % control
[2]; HMC3 cells, 10 uM compound
  1. Cell count (% control): 119.4 % control
  2. Nuclear Area (% Control): 99.5 % Control
  3. Nuclear DNA Intensity (% control): 97.7 % control
[3]; [5]
  4. Phagocytosis (% control): 127.2 % control
[4]; [6]
  4. Phagocytosis (% control): 104.7 % control

## O=c1ncn2nc(Sc3ccc(F)cc3F)ccc2c1-c1c(Cl)cccc1Cl [UNC10303093A]
[1]; BV2 cells, 10 uM compound
  1. Cell count (% control): 114.5 % control
  2. Nuclear Area (% Control): 100.4 % Control
  3. Nuclear DNA Intensity (% control): 110.5 % control
[2]; HMC3 cells, 10 uM compound
  1. Cell count (% control): 125.9 % control
  2. Nuclear Area (% Control): 98.4 % Control
  3. Nuclear DNA Intensity (% control): 98.8 % control
[3]; [5]
  4. Phagocytosis (% control): 151.8 % control
[4]; [6]
  4. Phagocytosis (% control): 71.1 % control

## CC[C@H](C)[C@H](N)C(=O)NCCN1CCOCC1.Cl.Cl [UNC10303094A]
[1]; BV2 cells, 10 uM compound
  1. Cell count (% control): 133.1 % control
  2. Nuclear Area (% Control): 103.4 % Control
  3. Nuclear DNA Intensity (% control): 103.6 % control
[2]; HMC3 cells, 10 uM compound
  1. Cell count (% control): 133.1 % control
  2. Nuclear Area (% Control): 103.2 % Control
  3. Nuclear DNA Intensity (% control): 95.9 % control
[3]; [5]
  4. Phagocytosis (% control): 157.3 % control
[4]; [6]
  4. Phagocytosis (% control): 75.5 % control

## CC(C)[C@H](O)C(=O)N[C@@H](C)C(=O)N[C@@H]1C(=O)N(C)CCc2ccccc21 [UNC10303095A]
[1]; BV2 cells, 10 uM compound
  1. Cell count (% control): 134.6 % control
  2. Nuclear Area (% Control): 102.1 % Control
  3. Nuclear DNA Intensity (% control): 104.4 % control
[2]; HMC3 cells, 10 uM compound
  1. Cell count (% control): 156.2 % control
  2. Nuclear Area (% Control): 97.1 % Control
  3. Nuclear DNA Intensity (% control): 97.3 % control
[3]; [5]
  4. Phagocytosis (% control): 150.0 % control
[4]; [6]
  4. Phagocytosis (% control): 70.8 % control

## CN(C)CC1CCOC1(c1ccccc1)c1ccccc1.Cl (stereo not drawn) [UNC10303096A]
[1]; BV2 cells, 10 uM compound
  1. Cell count (% control): 103.1 % control
  2. Nuclear Area (% Control): 105.3 % Control
  3. Nuclear DNA Intensity (% control): 104.2 % control
[2]; HMC3 cells, 10 uM compound
  1. Cell count (% control): 129.8 % control
  2. Nuclear Area (% Control): 100.5 % Control
  3. Nuclear DNA Intensity (% control): 94.9 % control
[3]; [5]
  4. Phagocytosis (% control): 256.6 % control
[4]; [6]
  4. Phagocytosis (% control): 111.9 % control

## CN(C)c1ccc2c(c1)Sc1cc(N(C)C)ccc1N2.CS(=O)(=O)O.CS(=O)(=O)O [UNC10303097A, reference compound]
[1]
  cytotoxicity in mouse microglial cells (cell count < 70% control): manifested toxicity in both microglial cell lines
[1]; BV2 cells, 10 uM compound
  1. Cell count (% control): 14.2 % control
  2. Nuclear Area (% Control): 111.0 % Control
  3. Nuclear DNA Intensity (% control): 58.9 % control
[2]
  cytotoxicity in human microglial cells (cell count < 70% control): manifested toxicity in both microglial cell lines
[2]; HMC3 cells, 10 uM compound
  1. Cell count (% control): 59.1 % control
  2. Nuclear Area (% Control): 75.8 % Control
  3. Nuclear DNA Intensity (% control): 120.7 % control
[3]; [5]
  4. Phagocytosis (% control): 102.3 % control
[4]; [6]
  4. Phagocytosis (% control): 6.7 % control

## COc1ccc2nc([S+]([O-])Cc3ncc(C)c(OC)c3C)nc-2[nH]1 (stereo not drawn) [UNC10303106A]
[1]; BV2 cells, 10 uM compound
  1. Cell count (% control): 113.2 % control
  2. Nuclear Area (% Control): 104.8 % Control
  3. Nuclear DNA Intensity (% control): 103.4 % control
[2]; HMC3 cells, 10 uM compound
  1. Cell count (% control): 100.3 % control
  2. Nuclear Area (% Control): 105.8 % Control
  3. Nuclear DNA Intensity (% control): 97.2 % control
[3]; [5]
  4. Phagocytosis (% control): 116.6 % control
[4]; [6]
  4. Phagocytosis (% control): 91.6 % control

## CN1c2ccc([N+](=O)[O-])cc2N=C(c2ccc(C(=O)O)cc2)c2cc3c(cc21)C(C)(C)CCC3(C)C [UNC10303107A]
[1]; BV2 cells, 10 uM compound
  1. Cell count (% control): 16.8 % control
  2. Nuclear Area (% Control): 151.2 % Control
  3. Nuclear DNA Intensity (% control): 64.7 % control
[2]; HMC3 cells, 10 uM compound
  1. Cell count (% control): 75.4 % control
  2. Nuclear Area (% Control): 99.6 % Control
  3. Nuclear DNA Intensity (% control): 105.3 % control
[3]; [5]
  4. Phagocytosis (% control): 117.4 % control
[4]; [6]
  4. Phagocytosis (% control): 76.2 % control

## CC(=O)N[C@H](Cc1ccc(O)cc1)C(=O)N1CCC[C@@H]1C(=O)N1C[C@@H](O)C[C@@H]1C(=O)NCC(=O)N[C@H](C)C(=O)NCC(N)=O [UNC10303110A] (Ac-[dY][dP][dHyp]G[dA]G-NH2)
[1]; BV2, compound 10 uM
  1. Cell count (% control): 113.8 % control
  2. Nuclear Area (% Control): 106.0 % Control
  3. Nuclear DNA Intensity (% control): 97.3 % control
[2]; HMC3, compound 10 uM
  1. Cell count (% control): 110.1 % control
  2. Nuclear Area (% Control): 103.7 % Control
  3. Nuclear DNA Intensity (% control): 94.9 % control
[3]; [7]
  4. Phagocytosis (% control): 117.7 % control
[4]; [8]
  4. Phagocytosis (% control): 73.8 % control

## COC(=O)C1=C(C)NC2=C(C(=O)c3ccccc32)C1c1ccccc1OCc1ccccc1F (stereo not drawn) [UNC10303111A]
[1]; BV2, compound 10 uM
  1. Cell count (% control): 84.0 % control
  2. Nuclear Area (% Control): 101.6 % Control
  3. Nuclear DNA Intensity (% control): 106.1 % control
[2]; HMC3, compound 10 uM
  1. Cell count (% control): 166.8 % control
  2. Nuclear Area (% Control): 93.9 % Control
  3. Nuclear DNA Intensity (% control): 99.7 % control
[3]; [7]
  4. Phagocytosis (% control): 307.3 % control
[4]; [8]
  4. Phagocytosis (% control): 61.6 % control

## CCCN(CC1CC1)c1nc(C)nc(Nc2c(Cl)cc(Cl)cc2Cl)c1Cl.Cl [UNC10303155A]
[1]; BV2, compound 10 uM
  1. Cell count (% control): 40.3 % control
  2. Nuclear Area (% Control): 117.9 % Control
  3. Nuclear DNA Intensity (% control): 98.5 % control
[2]; HMC3, compound 10 uM
  1. Cell count (% control): 120.1 % control
  2. Nuclear Area (% Control): 96.1 % Control
  3. Nuclear DNA Intensity (% control): 105.3 % control
[3]; [7]
  4. Phagocytosis (% control): 323.0 % control
[4]; [8]
  4. Phagocytosis (% control): 86.3 % control

## CN1C[C@H](Nc2cnn(C)c(=O)c2Br)C[C@H](c2ccccc2)C1 [UNC10303157A]
[1]; BV2, compound 10 uM
  1. Cell count (% control): 85.0 % control
  2. Nuclear Area (% Control): 105.0 % Control
  3. Nuclear DNA Intensity (% control): 100.7 % control
[2]; HMC3, compound 10 uM
  1. Cell count (% control): 86.8 % control
  2. Nuclear Area (% Control): 97.5 % Control
  3. Nuclear DNA Intensity (% control): 100.9 % control
[3]; [7]
  4. Phagocytosis (% control): 145.8 % control
[4]; [8]
  4. Phagocytosis (% control): 103.4 % control

Source: PMC9019904, “AD Informer Set: Chemical tools to facilitate Alzheimer's disease drug discovery” (Alzheimer's & Dementia : Translational Research & Clinical …, 2022)
